Key:
Assay type in all cases: in vivo
[1] = test system: Matricaria inodora; test: Herbicidal action post-emergence (greenhouse pot trial); conditions: application rate 20 g/ha, scored visually after about 3 weeks vs untreated controls
Method in brief: (§1)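 Weed seeds sown in sandy loam were grown in a greenhouse for 2–3 weeks and treated at the one-leaf stage. WP or EC formulations, with 0.5% additive, were sprayed on green parts at a water rate of 600 L/ha and at 80 g/ha or lower. Efficacy was scored visually about 3 weeks later against untreated controls.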

[2] = test system: Setaria viridis; test: as above; conditions: application rate 20 g/ha, scored visually after about 3 weeks vs untreated controls
Method in brief: as §1

[3] = test system: Digitaria sanguinalis; test: as above; conditions: application rate 20 g/ha
Method in brief: as §1

[4] = test system: Amaranthus retroflexus; test: as above; conditions: application rate 20 g/ha, scored visually after about 3 weeks vs untreated controls
Method in brief: as §1

[5] = test system: Polygonum convolvulus; test: as above; conditions: application rate 20 g/ha, scored visually after about 3 weeks vs untreated controls
Method in brief: as §1

[6] = test system: Stellaria media; test: as above; conditions: application rate 20 g/ha, scored visually after about 3 weeks vs untreated controls
Method in brief: as §1

[7] = test system: Viola tricolor; test: as above; conditions: application rate 20 g/ha
Method in brief: as §1

[8] = test system: Hordeum murinum; test: as above; conditions: application rate 20 g/ha, scored visually after about 3 weeks vs untreated controls
Method in brief: as §1

[9] = test system: Abutilon theophrasti; test: as above; conditions: application rate 20 g/ha, scored visually after about 3 weeks vs untreated controls
Method in brief: as §1

[10] = test system: Veronica persica; test: as above; conditions: application rate 20 g/ha
Method in brief: as §1

[11] = test system: Echinochloa crus-galli; test: as above; conditions: application rate 20 g/ha, scored visually after about 3 weeks vs untreated controls
Method in brief: as §1

[12] = test system: Pharbitis purpurea; test: as above; conditions: application rate 20 g/ha
Method in brief: as §1

[13] = test system: Triticum aestivum; test: Crop compatibility post-emergence (greenhouse pot trial)
Method in brief: (§2)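 Visual % damage vs untreated controls, ~3 wk post-spray (100% = plants died, 0% = as control). Plants in sandy loam, greenhouse, sprayed at one-leaf stage (2–3 wk after sowing); WP/EC in water + 0.5% additive, 600 L/ha.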

[14] = test system: Alopecurus myosuroides; test: Herbicidal action post-emergence (greenhouse pot trial); conditions: application rate 20 g/ha, scored visually after about 3 weeks vs untreated controls
Method in brief: as §1

[15] = test system: Glycine max; test: Crop compatibility post-emergence (greenhouse pot trial); conditions: application rate 5 g/ha
Method in brief: as §2

SMILES	Matricaria inodora (Efficacy in %) [1]	Setaria viridis (Efficacy in %) [2]	Digitaria sanguinalis (Efficacy in %) [3]	Amaranthus retroflexus (Efficacy in %) [4]	Polygonum convolvulus (Efficacy in %) [5]	Stellaria media (Efficacy in %) [6]	Viola tricolor (Efficacy in %) [7]	Hordeum murinum (Efficacy in %) [8]	Abutilon theophrasti (Efficacy in %) [9]	Veronica persica (Efficacy in %) [10]	Echinochloa crus-galli (Efficacy in %) [11]	Pharbitis purpurea (Efficacy in %) [12]	Triticum aestivum (Efficacy in %) ([13]; application rate 5 g/ha)	Alopecurus myosuroides (Efficacy in %) [14]	Triticum aestivum (Efficacy in %) ([13]; application rate 20 g/ha)	Glycine max (Efficacy in %) [15]
CC(Sc1cc(-n2c(=O)cc(C(F)(F)F)n(C)c2=O)c(F)cc1Cl)C(=O)OCCCSC(F)(F)F (stereo not shown) [I.1-48]	100%	100%	100%	100%	100%	100%	100%	80%	100%	100%	100%	100%	10%	–	–	–
CC(C)C(Sc1cc(-n2c(=O)cc(C(F)(F)F)n(C)c2=O)c(F)cc1Cl)C(=O)OCC1CCCO1 (stereo not shown) [I.6-71]	100%	100%	100%	100%	100%	100%	100%	80%	100%	100%	90%	100%	–	80%	20%	–
CC(C)CC(Sc1cc(-n2c(=O)cc(C(F)(F)F)n(C)c2=O)c(F)cc1Cl)C(=O)NCC1CCCO1 (stereo not shown) [I.4-221]	100%	100%	100%	100%	100%	80%	100%	80%	100%	100%	80%	100%	–	–	–	20%

— patent US11497212B2, “Substituted thiophenyl uracils, salts thereof and the use thereof as herbicidal agents” (Syngenta Crop Protection AG, priority 2017, dated 2022)
